Active and inactive are the calls of the source. The rule behind the calls is not given here.
How the values were obtained:
[1] = target: T1, Leukotriene A-4 hydrolase (Homo sapiens, UniProt P09960); assay: Activation of N-terminal (His)6 and Xpress-tagged LTA4H (unknown origin) expressed in Escherichia coli BL21(DE3) cells assessed as increase in aminopeptidase activity by measuring p-nitroanilide release using L-Alanine-p-nitroanilide incubated for 10 mins by UV plate reader based assay
T1 sequence (P09960 whole entry): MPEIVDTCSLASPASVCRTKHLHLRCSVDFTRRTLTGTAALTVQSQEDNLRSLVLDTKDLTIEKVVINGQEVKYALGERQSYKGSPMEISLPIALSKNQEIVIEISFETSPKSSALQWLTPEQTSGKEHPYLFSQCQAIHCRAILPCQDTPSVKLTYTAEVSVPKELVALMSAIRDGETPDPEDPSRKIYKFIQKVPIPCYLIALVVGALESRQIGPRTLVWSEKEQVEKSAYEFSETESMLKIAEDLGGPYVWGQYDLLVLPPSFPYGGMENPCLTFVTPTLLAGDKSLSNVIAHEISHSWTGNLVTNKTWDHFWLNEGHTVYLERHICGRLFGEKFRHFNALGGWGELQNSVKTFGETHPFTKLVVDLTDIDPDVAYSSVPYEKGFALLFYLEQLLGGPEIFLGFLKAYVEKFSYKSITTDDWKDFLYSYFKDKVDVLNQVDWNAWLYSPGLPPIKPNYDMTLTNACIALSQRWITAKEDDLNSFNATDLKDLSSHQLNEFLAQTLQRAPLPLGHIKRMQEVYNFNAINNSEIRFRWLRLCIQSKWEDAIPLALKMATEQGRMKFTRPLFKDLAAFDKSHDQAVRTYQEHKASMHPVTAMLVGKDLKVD

Neutrophil = assay: Inhibition of LTB4 production in A23187-stimulated human neutrophils at 0.001 to 1000 microM incubated for 30 mins by ELISA; format: functional, cell-based

AC50 [1] | Structure (SMILES) | inhibition (Neutrophil)
4.81 µM | Cc1cccc(Cc2ccc(-c3csc(N)n3)cc2)c1 | 
 | CC(C)C[C@H](NC(=O)[C@@H](O)[C@H](N)Cc1ccccc1)C(=O)O | Active

Source: ChEMBL document CHEMBL4414660, “Effect of Modifier Structure on the Activation of Leukotriene A4 Hydrolase Aminopeptidase Activity” (J Med Chem, 2019)
